According to patent US5124158A, “Transdermal antisecretory agents for gastrointestinal disease” (The Upjohn Company, priority 1990, dated 1992):

Assays:
[1] = tested on: (H^+ -K^+) ATPase; assay: Transdermal application to rabbit ears, (H+-K+) ATPase activity in fundic mucosa; type: in vivo; details: rabbits, transdermal 100 mg/kg divided to both ears, DMSO after 1, 3, 5, 7, 24 and 25 hrs, evaluated 30 hrs after dose
Method: (§1) The animals were allowed to rest for varying amounts of time and then the inhibition of (H^+ -K^+) ATPase, the enzyme responsible for gastric acid secretion, was measured.
(§2) For each of the following examples the drug dilutions were prepared in DMSO to a final concentration of 150 mg/ml. The drug was made fresh prior to each application.
(§3) The inhibition of (H^+ -K^+) ATPase activity was determined as described by Im, W. B.; Blalkeman, D. P., "Inhibitiion of Gastric pH^+ -K^+) ATPase by Unsaturated Long Chain Fatty Acids" Biochem. et Biophy. Acta 692:355-60 (1982). For the rat models, fundic gastric mucosal microsomes were prepared and (H^+ -K^+) ATPase activity in the microsomes was estimated by measuring K^+ -dependent ATP-hydrolysis.
For the rabbit models, mucosa from the fundic region was removed by blunt dissection and minced with scissors. 2.5 g of the minced tissue was placed in 25 ml of buffer containing 250 mM sucrose, 2 mM MgCl2, 1 mM EGTA, and 2 mM Hepes/Tris, pH 7.4. The tissues were then prepared as described for the rat gastric mucosa.
Male, New Zealand White rabbits were fasted overnight without water in their cages prior to treatment. The same compound as used in Example 1 was applied at 0 or 100 mg/kg in divided doses (1/2 to each ear) to naive rabbit ears. […] The rabbits were evaluated 30 hrs after the initial dose for determination of (H^+ -K^+) ATPase activity.

[2] = tested on: (H^+ -K^+) ATPase; assay: Transdermal application to backs of rats, (H+-K+) ATPase activity in fundic gastric mucosal microsomes (K+-dependent ATP-hydrolysis); type: in vivo, rat
Method: as §1, §2
as §3, with “Acta 692:355-60 (1982).” left out
(§4) Male, Upjohn Sprague Dawley rats were anesthetized with sodium pentobarbital and their dorsal hair removed with the depilatory NAIR. Care was taken to prevent abrasions which might result from hair removal. The animals were returned to their cages and allowed to recover for twenty-four hours. The rats were then fasted overnight in metal restraining tubes without water prior to treatment. 2-(4-ethylthio-3-methylpyridin-2-yl methyl)sulfinyl-benzimidazole at 0 or 100 mg/kg was applied to the backs of the rats and spread with an Eppendorf pipette tip. The same volume of DMSO alone was applied after 2 hrs to all animals. The rats were evaluated 5 or 30 hours after the initial dose for determination of (H^+ -K^+) ATPase activity.
as §4, with “Omeprazole” for “2-(4-ethylthio-3-methylpyridin-2-yl methyl)sulfinyl-benzimidazole”
(§5) Additional volumes (100 μl) of DMSO were spread over the treatment area one time (after two hours) or four times (after one, two, three and four hours). The animals were evaluated 5 hours after the initial dose for determination of (H^+ -K^+) ATPase activity.
(§6) Additional volumes (100 μl) of DMSO were spread over the treatment area after 2, 5, and 7 hours. The animals were evaluated 24 hours after the initial dose for determination of (H^+ -K^+) ATPase activity.

[3] = as above; type: in vivo, rat; details: rat, in vivo, topical or ocular, transdermal, lowest dose 25 mg/kg, read-out: fraction of the lowest dose absorbed
Method: as §1, §2
as §3, with “Acta 692:355-60 (1982).” left out
as §4
as §4, with “Omeprazole” for “2-(4-ethylthio-3-methylpyridin-2-yl methyl)sulfinyl-benzimidazole”
as §5, §6

[4] = Signs of irritation after transdermal application; type: in vivo; details: rabbit ears, transdermal 100 mg/kg in DMSO
Method: Male, New Zealand White rabbits were fasted overnight without water in their cages prior to treatment. The same compound as used in Example 1 was applied at 0 or 100 mg/kg in divided doses (1/2 to each ear) to naive rabbit ears. The rabbits received an additional application of DMSO to the treatment area after 1, 3, 5, 7, 24 and 25 hrs. The rabbits were evaluated 30 hrs after the initial dose for determination of (H^+ -K^+) ATPase activity.

Q: Which “reduction of (H^+ -K^+) ATPase activity from control” value (from here on “reduction … from control”) [1] does the source give for `CCSc1ccnc(C[S+]([O-])c2nc3ccccc3[nH]2)c1C` (centres unmarked) [2-(4-ethylthio-3-methylpyridin-2-ylmethyl)sulfinyl-benzimidazole] here?
A: 87%

Q: And the “reduction … from control” value ([2]; transdermal 100 mg/kg in DMSO, DMSO alone after 2 hrs, evaluated 5 or 30 hours after dose (activity did not change with time))?
A: 60-65%

Q: And the “additional reduction of (H^+ -K^+) ATPase activity by additional applications of DMSO” value ([2]; transdermal 100 mg/kg, four wipes of DMSO (1, 2, 3, 4 hours) versus one wipe, 5 hours)?
A: 16%

Q: What about the “reduction of (H^+ -K^+) ATPase activity” value ([2]; transdermal 100 mg/kg, four wipes of DMSO (1, 2, 3, 4 hours), 5 hours) of the same molecule?
A: 81%

Q: What about the “reduction … from control” value ([2]; transdermal 100 mg/kg, one DMSO wipe after two hours, evaluated 5 hours after dose (Example 3)) of the same molecule?
A: 65%

Q: What about the “reduction of (H^+ -K^+) ATPase activity” value ([2]; transdermal 200 mg/kg, one wipe of DMSO after two hours, 5 hours) of the same molecule?
A: 72%

Q: And the “reduction in (H^+ -K^+) ATPase from the control” value ([2]; transdermal 25, 50 or 100 mg/kg (maximum even at the lower dose), DMSO after 2, 5 and 7 hours, evaluated 24 hours after dose)?
A: ~50%

Q: And the Fa [3]?
A: ≥ 4%

Q: What about the signs of irritation [4] of the same molecule?
A: no signs of irritation were observed

Q: Which results are given for `COc1ccc2[nH]c([S+]([O-])Cc3ncc(C)c(OC)c3C)nc2c1` (centres unmarked) [omeprazole, reference compound]?
A: reduction of (H^+ -K^+) ATPase activity as compared to the control ([2]; transdermal 100 mg/kg in DMSO, DMSO alone after 2 hrs, after 5 hours): 35%; reduction of (H^+ -K^+) ATPase activity as compared to the control ([2]; transdermal 100 mg/kg in DMSO, DMSO alone after 2 hrs, after 30 hours): 27%
